# Data published in patent US11566007B2, “Ras inhibitors” (Revolution Medicines, Inc., priority 2019, dated 2023).
# “And” between values parts separate entries of the source, which are not always exact repeats. Identical values can stand only once. Like-named read-outs stand apart in the source and are kept apart here.
# What was measured:
# [1] = system: NCI-H358 cells (K-Ras G12C); assay: Potency assay: pERK in NCI-H358 cells; assay type: cell-based, human; conditions: H358 KRAS G12C, read-out: pERK EC50
# How it was run: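 pERK decrease read by AlphaLISA SureFire p-ERK1/2 or In-Cell Western after 4 h compound exposure at 37 °C, 5% CO2.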
# K-Ras G13C = K-Ras G13C (Homo sapiens (Human), UniProt P01116+P62937, G13C); assay: Ras-Raf (BRAF RBD) disruption / FRET / MOA assay, KRAS G13C; assay type: biochemical; conditions: KRAS G13C; Ras-Raf disruption/FRET/MOA assay; read-out: IC50* KRAS G13C FRET data
# How it was run: (§1)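 Compounds, top final concentration 30 μM in 10-point 3-fold series, incubated 3 hours at 25° C with nucleotide-loaded Ras, cyclophilin A and BRAF RBD.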
# KRAS G12S = KRAS G12S (Homo sapiens (Human), UniProt P01116+P62937, G12S); assay: Ras-Raf (BRAF RBD) disruption / FRET / MOA assay, KRAS G12S; assay type: biochemical; conditions: Ras-Raf disruption/FRET/MOA assay; class symbols; read-out: KRAS G12S FRET data IC50
# How it was run: as §1
# KRAS G12D = KRAS G12D (Homo sapiens (Human), UniProt P01116+P62937, G12D); assay: Ras-Raf (BRAF RBD) disruption / FRET / MOA assay, KRAS G12D; assay type: biochemical; conditions: Ras-Raf disruption/FRET/MOA assay; class symbols; read-out: KRAS G12D FRET data IC50
# How it was run: as §1
# KRAS G12V = KRAS G12V (Homo sapiens (Human), UniProt P01116+P62937, G12V); assay: Ras-Raf (BRAF RBD) disruption / FRET / MOA assay, KRAS G12V; assay type: biochemical; conditions: read-out: IC50* KRAS G12V FRET data
# How it was run: as §1
# KRAS WT = KRAS WT (Homo sapiens (Human), UniProt P01116+P62937); assay: Ras-Raf (BRAF RBD) disruption / FRET / MOA assay, KRAS WT; assay type: biochemical; conditions: read-out: IC50* KRAS WT FRET data
# How it was run: as §1
# KRAS G13D = KRAS G13D (Homo sapiens (Human), UniProt P01116+P62937, G13D); assay: Ras-Raf (BRAF RBD) disruption / FRET / MOA assay, KRAS G13D; assay type: biochemical; conditions: read-out: IC50* KRAS G13D FRET data
# How it was run: as §1
# KRAS Q61H = KRAS Q61H (Homo sapiens (Human), UniProt P01116+P62937, Q61H); assay: Ras-Raf (BRAF RBD) disruption / FRET / MOA assay, KRAS Q61H; assay type: biochemical; conditions: Ras-Raf disruption/FRET/MOA assay; class symbols; read-out: KRAS Q61H FRET data IC50
# Experimental: (§2) The purpose of this biochemical assay is to measure the ability of test compounds to facilitate ternary complex formation between a nucleotide-loaded Ras isoform and cyclophilin A; the resulting ternary complex disrupts binding to a BRAF^RBD construct, inhibiting Ras signaling through a RAF effector.
# (§3) […]. Compound is present in plate wells as a 10-point 3-fold dilution series starting at a final concentration of 30 μM. After incubation at 25° C. for 3 hours, a mixture of Anti-His Eu-W1024 and anti-GST allophycocyanin is then added to assay sample wells at final concentrations of 10 nM and 50 nM, respectively, and the reaction incubated for an additional 1.5 hours. […] Compounds that facilitate disruption of a Ras:RAF complex are identified as those eliciting a decrease in the TR-FRET ratio relative to DMSO control wells.
# (§4) Note—The following protocol describes a procedure for monitoring disruption of K-Ras G12C (GMP-PNP) binding to BRAF^RBD by a compound of the invention. This protocol may also be executed substituting other Ras proteins or nucleotides.
# (§5) The purpose of this biochemical assay was to measure the ability of test compounds to facilitate ternary complex formation between a nucleotide-loaded K-Ras isoform and Cyclophilin A; the resulting ternary complex disrupts binding to a BRAF^RBD construct, inhibiting K-Ras signaling through a RAF effector. Data is reported as IC50 values.
# as §3, with “Compound was” for “Compound is”, “allophycocyanin was” for “allophycocyanin is”, “a K-Ras:RAF” for “a Ras:RAF”, “complex were” for “complex are”
# NRAS G12C = NRAS G12C (Homo sapiens (Human), UniProt P01111+P62937, G12C); assay: Ras-Raf (BRAF RBD) disruption / FRET / MOA assay, NRAS G12C; assay type: biochemical; conditions: read-out: IC50* NRAS G12C FRET data
# How it was run: as §1
# NRAS Q61R = NRAS Q61R (Homo sapiens (Human), UniProt P01111+P62937, Q61R); assay: Ras-Raf (BRAF RBD) disruption / FRET / MOA assay, NRAS Q61R; assay type: biochemical; conditions: NRAS Q61R; Ras-Raf disruption/FRET/MOA assay; read-out: IC50* NRAS Q61R FRET data
# Experimental: as §2, §3, §4, §5
# as §3, with “Compound was” for “Compound is”, “allophycocyanin was” for “allophycocyanin is”, “a K-Ras:RAF” for “a Ras:RAF”, “complex were” for “complex are”
# NRAS Q61K = NRAS Q61K (Homo sapiens (Human), UniProt P01111+P62937, Q61K); assay: Ras-Raf (BRAF RBD) disruption / FRET / MOA assay, NRAS Q61K; assay type: biochemical; conditions: NRAS Q61K; Ras-Raf disruption/FRET/MOA assay; read-out: IC50* NRAS Q61K FRET data
# Experimental: as §2, §3, §4, §5
# as §3, with “Compound was” for “Compound is”, “allophycocyanin was” for “allophycocyanin is”, “a K-Ras:RAF” for “a Ras:RAF”, “complex were” for “complex are”
# NRAS WT = NRAS WT (Homo sapiens (Human), UniProt P01111+P62937); assay: Ras-Raf (BRAF RBD) disruption / FRET / MOA assay, NRAS WT; assay type: biochemical; conditions: read-out: IC50* NRAS WT FRET data
# Experimental: as §2, §3, §4, §5
# as §3, with “Compound was” for “Compound is”, “allophycocyanin was” for “allophycocyanin is”, “a K-Ras:RAF” for “a Ras:RAF”, “complex were” for “complex are”
# NCI-H358 (K-Ras G12C) = assay: CellTiter-Glo cell viability assay, NCI-H358; assay type: cell-based, human; conditions: NCI-H358, 5-day treatment; class symbols; read-out: Additional H358 Cell Viability assay data (K-Ras G12C, IC50)
# How it was run: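 Cells seeded, compound added directly, 5-day exposure. Plates to RT ~30 min, CellTiter-Glo luminescence read. Normalized to DMSO avg (x100); 4-parameter logistic fit.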
# K-Ras G12C = K-Ras G12C (Homo sapiens (Human), UniProt P01116+P62937, G12C); assay: Ras-Raf (BRAF RBD) disruption / FRET / MOA assay, KRAS G12C; assay type: biochemical; conditions: KRAS G12C; Ras-Raf disruption/FRET/MOA assay; read-out: IC50* KRAS G12C FRET data
# How it was run: as §1
# Sequence of K-Ras G13C (P01116-2 other isoform, or with tags, fused parts or gaps G13C): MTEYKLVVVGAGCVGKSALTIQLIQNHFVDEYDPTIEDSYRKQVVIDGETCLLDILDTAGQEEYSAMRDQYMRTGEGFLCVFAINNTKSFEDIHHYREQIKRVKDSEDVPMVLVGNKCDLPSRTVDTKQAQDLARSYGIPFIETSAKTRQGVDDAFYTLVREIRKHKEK
# Sequence of K-Ras G13C (P62937 whole entry): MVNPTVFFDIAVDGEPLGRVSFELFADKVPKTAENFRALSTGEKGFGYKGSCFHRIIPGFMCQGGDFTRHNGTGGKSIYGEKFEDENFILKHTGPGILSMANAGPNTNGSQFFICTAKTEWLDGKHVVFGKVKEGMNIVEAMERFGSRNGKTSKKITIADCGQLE
# Sequence of KRAS G12S (P01116-2 other isoform, or with tags, fused parts or gaps G12S): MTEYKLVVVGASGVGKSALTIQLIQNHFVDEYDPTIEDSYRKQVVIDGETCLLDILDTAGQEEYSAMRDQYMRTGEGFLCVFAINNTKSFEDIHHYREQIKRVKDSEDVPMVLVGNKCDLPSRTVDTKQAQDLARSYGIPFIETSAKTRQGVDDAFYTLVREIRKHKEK
# Sequence of KRAS G12S (P62937 whole entry): as the sequence (P62937 whole entry) above
# Sequence of NRAS WT (P01111 whole entry): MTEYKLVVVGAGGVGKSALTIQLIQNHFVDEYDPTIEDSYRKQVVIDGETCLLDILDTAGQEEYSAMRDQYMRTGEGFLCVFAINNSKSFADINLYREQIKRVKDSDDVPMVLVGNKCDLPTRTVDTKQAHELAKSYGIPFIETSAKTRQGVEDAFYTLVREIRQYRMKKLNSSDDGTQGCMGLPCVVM
# Sequence of NRAS WT (P62937 whole entry): as the sequence (P62937 whole entry) above
# Sequence of NRAS Q61R (P01111 whole entry Q61R): as the sequence (P01111 whole entry) above, with Q61R counted along it
# Sequence of NRAS Q61R (P62937 whole entry): as the sequence (P62937 whole entry) above
# Sequence of NRAS G12C (P01111 whole entry G12C): as the sequence (P01111 whole entry) above, with G12C counted along it
# Sequence of NRAS G12C (P62937 whole entry): as the sequence (P62937 whole entry) above
# Sequence of KRAS G12V (P01116-2 other isoform, or with tags, fused parts or gaps G12V): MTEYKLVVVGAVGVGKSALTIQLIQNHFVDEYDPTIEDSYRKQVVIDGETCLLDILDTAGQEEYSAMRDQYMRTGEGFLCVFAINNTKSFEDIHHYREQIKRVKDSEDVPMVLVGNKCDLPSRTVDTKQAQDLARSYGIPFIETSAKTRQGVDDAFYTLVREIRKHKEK
# Sequence of KRAS G12V (P62937 whole entry): as the sequence (P62937 whole entry) above
# Sequence of K-Ras G12C (P01116-2 other isoform, or with tags, fused parts or gaps G12C): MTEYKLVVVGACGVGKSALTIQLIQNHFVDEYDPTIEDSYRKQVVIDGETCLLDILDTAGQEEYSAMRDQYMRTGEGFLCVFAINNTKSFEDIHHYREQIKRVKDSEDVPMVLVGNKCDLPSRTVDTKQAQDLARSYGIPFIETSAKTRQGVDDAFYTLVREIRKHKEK
# Sequence of K-Ras G12C (P62937 whole entry): as the sequence (P62937 whole entry) above
# Sequence of KRAS WT (P01116-2 other isoform, or with tags, fused parts or gaps): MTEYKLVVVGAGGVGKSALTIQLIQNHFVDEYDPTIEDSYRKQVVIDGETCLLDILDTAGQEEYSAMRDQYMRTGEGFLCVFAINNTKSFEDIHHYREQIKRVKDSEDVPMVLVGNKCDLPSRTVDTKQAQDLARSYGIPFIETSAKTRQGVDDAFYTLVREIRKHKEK
# Sequence of KRAS WT (P62937 whole entry): as the sequence (P62937 whole entry) above
# Sequence of NRAS Q61K (P01111 whole entry Q61K): as the sequence (P01111 whole entry) above, with Q61K counted along it
# Sequence of NRAS Q61K (P62937 whole entry): as the sequence (P62937 whole entry) above
# Sequence of KRAS G13D (P01116-2 other isoform, or with tags, fused parts or gaps G13D): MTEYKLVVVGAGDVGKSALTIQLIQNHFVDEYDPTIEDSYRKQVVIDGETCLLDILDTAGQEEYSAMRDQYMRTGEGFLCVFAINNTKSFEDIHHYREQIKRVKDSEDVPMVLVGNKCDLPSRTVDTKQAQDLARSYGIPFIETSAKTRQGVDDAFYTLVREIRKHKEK
# Sequence of KRAS G13D (P62937 whole entry): as the sequence (P62937 whole entry) above
# Sequence of KRAS Q61H (P01116-2 other isoform, or with tags, fused parts or gaps Q61H): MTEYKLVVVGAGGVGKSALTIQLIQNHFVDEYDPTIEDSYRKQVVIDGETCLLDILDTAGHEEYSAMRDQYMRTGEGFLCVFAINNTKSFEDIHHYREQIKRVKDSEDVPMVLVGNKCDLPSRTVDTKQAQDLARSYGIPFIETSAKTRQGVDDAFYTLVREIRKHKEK
# Sequence of KRAS Q61H (P62937 whole entry, canonical isoform): as the sequence (P62937 whole entry) above
# Sequence of KRAS G12D (P01116-2 other isoform, or with tags, fused parts or gaps G12D): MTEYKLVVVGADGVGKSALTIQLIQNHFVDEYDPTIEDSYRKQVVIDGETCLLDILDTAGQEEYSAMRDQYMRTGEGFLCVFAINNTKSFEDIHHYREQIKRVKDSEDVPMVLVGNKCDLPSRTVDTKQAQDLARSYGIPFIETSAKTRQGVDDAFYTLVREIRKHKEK
# Sequence of KRAS G12D (P62937 whole entry): as the sequence (P62937 whole entry) above
IC50 (K-Ras G13C),IC50 (KRAS G12S),IC50 (KRAS G12D),IC50 (KRAS G12V),IC50 (KRAS WT),IC50 (KRAS G13D),IC50 (KRAS Q61H) [nM],IC50 (NRAS G12C) [nM],IC50 (NRAS Q61R) [nM],IC50 (NRAS Q61K) [nM],IC50 (NRAS WT) [nM],IC50 (NCI-H358 (K-Ras G12C)) [nM],IC50 (K-Ras G12C),"EC50 ([1]; Homo sapiens, NCI-H358) [nM]",Structure (SMILES),EC50 [1] [nM]
1000 to 10000 nM,1000 to 10000 nM,> 10000 nM,1000 to 10000 nM,1000 to 10000 nM,1000 to 10000 nM,1000 to 10000,< 10,,,1000 to 10000,< 10,,,"CCn1c(-c2cccnc2[C@H](C)OC)c2c3cc(ccc31)N1CCC[C@@H](C[C@H](NC(=O)[C@H](C(C)C)N(C)C(=O)C3(F)CCN(C(=O)C#CC(C)(C)N(C)C)CC3)C(=O)N3CCC[C@H](N3)C(=O)OCC(C)(C)C2)C1 (atropisomer, axis not shown) [Example A616]",< 5000
1000 to 10000 nM,1000 to 10000 nM,> 10000 nM,1000 to 10000 nM,> 10000 nM,> 10000 nM,> 10000,100 to 1000,> 10000,> 10000,1000 to 10000,,100 to 1000 nM,,C=CC(=O)N1CC[C@H](C(=O)N(C)C(C(=O)N[C@H]2C[C@H]3CN(CCO3)c3ccc4c(c3)c(c(-c3cccnc3[C@H](C)OC)n4CC)CC(C)(C)COC(=O)[C@@H]3CCCN(N3)C2=O)C(C)C)C1 (mixture of isomers) [Example A507],

# The next lines start with the compound.
Structure (SMILES),IC50 (K-Ras G13C),IC50 (KRAS G12S),IC50 (KRAS G12D),IC50 (KRAS G12V),IC50 (KRAS WT),IC50 (KRAS G13D),IC50 (KRAS Q61H) [nM],IC50 (NRAS G12C) [nM],IC50 (NRAS Q61R) [nM],IC50 (NRAS Q61K) [nM],IC50 (NRAS WT) [nM],IC50 (NCI-H358 (K-Ras G12C)) [nM],IC50 (K-Ras G12C),"EC50 ([1]; Homo sapiens, NCI-H358) [nM]",EC50 [1] [nM]
"C=CC(=O)N1CC[C@H](C(=O)N(C)[C@H](C(=O)N[C@H]2Cc3cc(O)cc(c3)-c3ccc4c(c3)c(c(-c3cc(CN(C)C)cnc3[C@H](C)OC)n4CC)CC(C)(C)COC(=O)[C@@H]3CCCN(N3)C2=O)C(C)C)C1 (atropisomer, axis not shown) [Example A537]",10 to 100 nM,10 to 100 nM,100 to 1000 nM,10 to 100 nM,10 to 100 nM,10 to 100 nM,10 to 100,< 10,100 to 1000,100 to 1000,10 to 100,,,,< 5000
C=CC(=O)N1CC[C@H](C(=O)N(C)[C@H](C(=O)N[C@H]2Cc3cc(O)cc(c3)-c3ccc4c(c3)c(c(-c3ccc(N5CCN(C)CC5)nc3)n4CC)CC(C)(C)COC(=O)[C@@H]3CCCN(N3)C2=O)C(C)C)C1 [Example A089],1000 to 10000 nM,1000 to 10000 nM,> 10000 nM,1000 to 10000 nM,1000 to 10000 nM,,100 to 1000,,1000 to 10000,1000 to 10000,1000 to 10000,,100 to 1000 nM,,
C=CC(=O)N1CC[C@H](C(=O)N(C)[C@H](C(=O)N[C@H]2Cc3cc(O)cc(c3)-c3ccc4c(c3)c(c(-c3cccnc3)n4C(C)(C)C#N)CC(C)(C)COC(=O)[C@@H]3CCCN(N3)C2=O)C(C)C)C1 [Example A148],> 10000 nM and 1000 to 10000 nM,100 to 1000 nM and > 10000 nM,1000 to 10000 nM and > 10000 nM,100 to 1000 nM and > 10000 nM,100 to 1000 nM and > 10000 nM,1000 to 10000 nM and > 10000 nM,10 to 100,,100 to 1000,100 to 1000,100 to 1000,,10 to 100 nM and 1000 to 10000 nM,< 5000,
